Consider 1 compound from patent US6743818B2, “Cyclobutaindolecarboxamide compounds” (Les Laboratoires Servier, priority 2000, dated 2004).

One test has as its system male Wistar rats. The experiment in a line: Vogel conflict test. It counts as in vivo, rat. The settings on record: s.c.; for Punished licks (1 shock/20 licks): 3 minutes of test. Here is the method:
The test is carried out on male Wistar rats (IFFA-CREDO) weighing from 230 to 250 g, which are kept in groups of 4 on sawdust in cages in an animal house, with free access to food and drink, for 5 days before they are used, under the following conditions: temperature (21±1° C.), humidity (60±5%) and a 12 hour diurnal cycle (07:00 to 19:00 hours).
On the Monday following their arrival, the animals are transferred to the experiment room where they stay until Friday, the day of the test. For 4 days, from Monday to Thursday inclusive, the animals have access to drink for only one hour per day (from 09:00 to 10:00 hours).
On the day before the test, the animals are isolated from 15:00 hours in cages, on grills, without either food or drink.
The test is carried out in a transparent plastics cage located in a soundproofed and ventilated enclosure. The cage has a chrome steel floor. The metal tip of the bottle containing the drink enters the cage at a height of 6 cm above the metal floor. The floor and the tip of the bottle are connected by electric cables to an apparatus which records the licks of the animal and controls the administration of electric shocks. The apparatus is so regulated that the animal receives an electric shock (between tip and metal floor) every 20 licks of the tip.
On the day of the test, the animal is given an injection (s.c.) of physiological serum (control) or of the test product 30 minutes before being placed in the test cage. The session begins as soon as the animal has carried out 20 licks and received a first electric shock (duration 0.5 seconds, intensity 0.300 mA). For a period of 3 minutes, the animal receives an electric shock each time it carries out 20 licks.
The results are the numbers of licks and of shocks received by the animal during the 3 minutes of the test.
The numbers of licks and of shocks received by the treated animals are compared with those of the control animals by variance analysis, followed by a Dunnett's test with p<0.05. An anxiolytic product increases the number of licks and of shocks received by the animal compared with the controls. For information only, the average number of licks not punished in the animals which have been made thirsty is 674.9±44.5 (N=7) over 3 minutes.
The effectiveness of a product is expressed by the minimum effective dose (MED), that is to say, the lowest dose producing a significant difference compared with the controls. That dose is 2.5 mg/kg s.c. for the product of Example 1.

For test [1], the system named is Male mice of the NMRI strain. The experiment in a line: Marble-burying test in the mouse. It counts as in vivo. The note with it: s.c.; inhibition of spontaneous marble-burying, 30 minutes' free exploration. An excerpt:
This test allows evaluation of the capacity of pharmacological agents to inhibit the spontaneous marble-burying behaviour of mice, the inhibition being predictive of antidepressant and/or anti-impulsive action. Male mice of the NMRI strain (Iffa-Credo, l'Arbresle, France) weighing from 20 to 25 g on the day of the experiment are placed individually in Macrolon boxes (30×18×19 cm) containing 5 cm of sawdust and covered with a perforated plexiglass plate. Twenty four “tiger's eye” glass marbles are evenly distributed on the sawdust at the periphery of the box. At the end of 30 minutes' free exploration, the animals are removed from the box and the number of buried marbles is counted.

Each structure is given as a SMILES string.

In the case of `O=C(Nc1cccnc1)N1CCc2cc3c(cc21)CC3` [Example 1, N-(3-Pyridyl)-2,3,5,6-tetrahydro-1H-cyclobuta[f]indole1-carboxamide], the “Punished licks (1 shock/20 licks)” value is listed as 197.5 ± 59.5 in the test with male Wistar rats (dose 0.63 mg/kg, N=8); 560.1 ± 67.0* in the test with male Wistar rats (dose 2.5 mg/kg, N=8, *p < 0.05); 499.3 ± 95.3* in the test on male Wistar rats (dose 10.0 mg/kg, N=7, *p < 0.05). The “minimum effective dose (MED)” value in the test on male Wistar rats (30 minutes before test, lowest dose producing a significant difference compared with the controls (p<0.05)) is listed as 2.5 mg/kg. Further, in test [1], the “MED (minimum effective dose)” value was 2.5 mg/kg.
